{
  "source": "patent US10376584B2",
  "about": "“Stable pharmaceutical formulations of methylnaltrexone” (Progenics Pharmaceuticals, Inc., priority 2003, dated 2019)",
  "experiment": "Autoclaving of methylnaltrexone solutions (122° C., 15 lbs. pressure for 20 min), degradation products",
  "format": "physicochemical",
  "experimental": "Applicants have discovered that during the autoclaving process, methylnaltrexone in aqueous solution tends to degrade to a surprising extent. The amount of degradation resulting from simple autoclaving (122° C., 15 lbs. pressure for 20 min.) can be as high as […]. The degradation products are depicted in FIG. 1, and appear to include at least two predominant degradants having relative retention times (RRT) of 0.72 (2.828 minutes) and 0.89 (3.435 minutes) and, with other minor forms as can be observed. The degradant identified by the 0.72 RRT peak appears in small amounts, 0.074, immediately upon dissolving the methylnaltrexone into solution and increases overtime with storage or autoclaving 0.25%. The degradant identified by the 0.89 RRT peak appears only after storage over time or after autoclaving (<0.05% and 0.724%, respectively). Applicants also have discovered that methylnaltrexone is unstable in aqueous solutions when stored at room temperature or even at 4° C. for significant (but commercially necessary) periods of time such as 6 months, 12 months or even two years. Degradation occurs without regard to whether the aqueous solution was previously autoclaved or filter sterilized. It would be desirable to stabilize formulations of methylnaltrexone such that following the autoclaving process or following storage (or both autoclaving and storage), the amount of the total degradation products would be less than 2.0%, 1.5%, 1.0%, 0.5%, 0.25%, and even 0.125%.\nThe invention provides stable formulations of methylnaltrexone. By stable solutions of methylnaltrexone, it is meant that following autoclaving at 122° C., 15 lbs. pressure for 20 minutes, the methylnaltrexone degradation products resulting from such conditions are not more than 2% of the total methylnaltrexone present in a given solution. […]",
  "data": [
    {"smiles": "C[N@+]1(CC2CC2)CC[C@]23c4c5ccc(O)c4O[C@H]2C(=O)CC[C@@]3(O)[C@H]1C5", "note": "[methylnaltrexone]", "values": [
      {"measurement": "levels of degradation products after autoclaving with buffering agents", "setting": "buffers in concentrations ranging from 0.25 mM to 25 mM", "value": "Acceptable levels of degradation products"},
      {"measurement": "stability to autoclaving by adjustment of pH alone", "setting": "pH between 4.25 and 6", "value": "not sufficient to produce stable formulations"},
      {"measurement": "pH of the autoclaved sample", "setting": "pH set between 3.0 and 6.0 with pH-adjusting acid or base prior to autoclaving, no buffer", "value": "about 7.0"}
    ]}
  ]
}
